Test results taken from PubChem BioAssay (NCI).
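Step 1: Grow cells in 96-well plates. Step 2: Expose to compound for 48 hours at 5 concentrations. Step 3: Interpolate endpoints linearly; if unreached, use highest concentration. Here, GI50 denotes the concentration required for 50% inhibition of growth. TGI marks complete inhibition of growth.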

Columns and labels:
Test in all cases: growth of human tumour cells (NCI), 48 h
U251 CNS = system: U251 CNS
OVCAR-3 ovarian = system: OVCAR-3 ovarian
786-0 renal = system: 786-0 renal
HL-60(TB) leukemia = system: HL-60(TB) leukemia
OVCAR-4 ovarian = system: OVCAR-4 ovarian
SNB-75 CNS = system: SNB-75 CNS
SF-539 CNS = system: SF-539 CNS
UACC-257 melanoma = system: UACC-257 melanoma
NCI/ADR-RES ovarian = system: NCI/ADR-RES ovarian
SF-295 CNS = system: SF-295 CNS
PC-3 prostate = system: PC-3 prostate
BT-549 breast = system: BT-549 breast
COLO 205 colon = system: COLO 205 colon
UO-31 renal = system: UO-31 renal
MCF7 breast = system: MCF7 breast
IGROV1 ovarian = system: IGROV1 ovarian
OVCAR-5 ovarian = system: OVCAR-5 ovarian
HT29 colon = system: HT29 colon
HCT-116 colon = system: HCT-116 colon
T-47D breast = system: T-47D breast
M14 melanoma = system: M14 melanoma
KM12 colon = system: KM12 colon
HOP-62 NSCLC = system: HOP-62 NSCLC
K-562 leukemia = system: K-562 leukemia
SN12C renal = system: SN12C renal
A498 renal = system: A498 renal
TK-10 renal = system: TK-10 renal
NCI-H460 lung = system: NCI-H460 lung
NCI-H522 lung = system: NCI-H522 lung
MOLT-4 leukemia = system: MOLT-4 leukemia
SW-620 colon = system: SW-620 colon
LOX IMVI melanoma = system: LOX IMVI melanoma
SK-MEL-2 melanoma = system: SK-MEL-2 melanoma
HS 578T breast = system: HS 578T breast
UACC-62 melanoma = system: UACC-62 melanoma
DU-145 prostate = system: DU-145 prostate
SR leukemia = system: SR leukemia
CAKI-1 renal = system: CAKI-1 renal
A549 NSCLC = system: A549 NSCLC
MDA-MB-435 = system: MDA-MB-435
SK-MEL-28 melanoma = system: SK-MEL-28 melanoma
OVCAR-8 ovarian = system: OVCAR-8 ovarian
EKVX NSCLC = system: EKVX NSCLC
NCI-H226 lung = system: NCI-H226 lung
SK-OV-3 ovarian = system: SK-OV-3 ovarian
SNB-19 CNS = system: SNB-19 CNS
HCC-2998 colon = system: HCC-2998 colon
ACHN renal = system: ACHN renal
RPMI-8226 leukemia = system: RPMI-8226 leukemia
HOP-92 NSCLC = system: HOP-92 NSCLC
SK-MEL-5 melanoma = system: SK-MEL-5 melanoma
MDA-MB-231 breast = system: MDA-MB-231 breast
SF-268 CNS = system: SF-268 CNS
HCT-15 colon = system: HCT-15 colon
RXF 393 renal = system: RXF 393 renal
CCRF-CEM leukemia = system: CCRF-CEM leukemia
NCI-H23 lung = system: NCI-H23 lung
MALME-3M melanoma = system: MALME-3M melanoma

COC(=O)CN(CC1O[C@@H]2OC(C)(C)O[C@@H]2C1N=[N+]=[N-])C(=O)OCc1ccccc1 (stereo partly specified)
TGI (U251 CNS): > 100 µM
TGI (OVCAR-3 ovarian): > 100 µM
TGI (786-0 renal): > 100 µM
TGI (HL-60(TB) leukemia): > 100 µM
TGI (OVCAR-4 ovarian): > 100 µM
TGI (SNB-75 CNS): > 100 µM
TGI (SF-539 CNS): > 100 µM
TGI (UACC-257 melanoma): > 100 µM
TGI (NCI/ADR-RES ovarian): > 100 µM
TGI (SF-295 CNS): > 100 µM
TGI (PC-3 prostate): > 100 µM
TGI (BT-549 breast): > 100 µM
TGI (COLO 205 colon): > 100 µM
TGI (UO-31 renal): > 100 µM
TGI (MCF7 breast): > 100 µM
TGI (IGROV1 ovarian): > 100 µM
TGI (OVCAR-5 ovarian): > 100 µM
TGI (HT29 colon): > 100 µM
TGI (HCT-116 colon): > 100 µM
TGI (T-47D breast): > 100 µM
TGI (M14 melanoma): > 100 µM
TGI (KM12 colon): > 100 µM
TGI (HOP-62 NSCLC): > 100 µM
TGI (K-562 leukemia): > 100 µM
TGI (SN12C renal): > 100 µM
TGI (A498 renal): > 100 µM
TGI (TK-10 renal): > 100 µM
TGI (NCI-H460 lung): > 100 µM
TGI (NCI-H522 lung): > 100 µM
TGI (MOLT-4 leukemia): > 100 µM
TGI (SW-620 colon): > 100 µM
TGI (LOX IMVI melanoma): > 100 µM
TGI (SK-MEL-2 melanoma): > 100 µM
TGI (HS 578T breast): > 100 µM
TGI (UACC-62 melanoma): > 100 µM
TGI (DU-145 prostate): > 100 µM
TGI (SR leukemia): > 100 µM
TGI (CAKI-1 renal): > 100 µM
TGI (A549 NSCLC): > 100 µM
TGI (MDA-MB-435): > 100 µM
TGI (SK-MEL-28 melanoma): > 100 µM
TGI (OVCAR-8 ovarian): > 100 µM
TGI (EKVX NSCLC): > 100 µM
TGI (NCI-H226 lung): > 100 µM
TGI (SK-OV-3 ovarian): > 100 µM
TGI (SNB-19 CNS): > 100 µM
TGI (HCC-2998 colon): > 100 µM
TGI (ACHN renal): > 100 µM
TGI (RPMI-8226 leukemia): > 100 µM
TGI (HOP-92 NSCLC): > 100 µM
TGI (SK-MEL-5 melanoma): > 100 µM
TGI (MDA-MB-231 breast): > 100 µM
TGI (SF-268 CNS): > 100 µM
TGI (HCT-15 colon): > 100 µM

CN(C)c1cc[n+](/C(NS(=O)(=O)c2cc(C(=O)Nc3ccc(Cl)cc3)c(Cl)cc2[S-])=C(\C#N)C(=O)c2ccccc2)cc1
GI50 (U251 CNS): 61 µM
TGI (U251 CNS): > 100 µM
GI50 (OVCAR-3 ovarian): 26.6 µM
TGI (OVCAR-3 ovarian): 98.6 µM
GI50 (786-0 renal): > 100 µM
TGI (786-0 renal): > 100 µM
GI50 (HL-60(TB) leukemia): > 100 µM
TGI (HL-60(TB) leukemia): > 100 µM
GI50 (OVCAR-4 ovarian): 18 µM
TGI (OVCAR-4 ovarian): 38.8 µM
GI50 (SNB-75 CNS): 31.1 µM
TGI (SNB-75 CNS): > 100 µM
GI50 (SF-539 CNS): 11.9 µM
TGI (SF-539 CNS): 24.8 µM
GI50 (UACC-257 melanoma): 90.2 µM
TGI (UACC-257 melanoma): > 100 µM
GI50 (NCI/ADR-RES ovarian): > 100 µM
TGI (NCI/ADR-RES ovarian): > 100 µM
GI50 (SF-295 CNS): 27.1 µM
TGI (SF-295 CNS): 68.7 µM
GI50 (PC-3 prostate): 24.9 µM
TGI (PC-3 prostate): 75.5 µM
GI50 (RXF 393 renal): 55.4 µM
TGI (RXF 393 renal): > 100 µM
GI50 (BT-549 breast): 25.4 µM
TGI (BT-549 breast): 82.8 µM
GI50 (COLO 205 colon): 30 µM
TGI (COLO 205 colon): > 100 µM
GI50 (CCRF-CEM leukemia): 33.1 µM
TGI (CCRF-CEM leukemia): > 100 µM
GI50 (UO-31 renal): 23.8 µM
TGI (UO-31 renal): 54.7 µM
GI50 (MCF7 breast): 25.1 µM
TGI (MCF7 breast): > 100 µM
GI50 (IGROV1 ovarian): 84.7 µM
TGI (IGROV1 ovarian): > 100 µM
GI50 (NCI-H23 lung): 41.2 µM
TGI (NCI-H23 lung): > 100 µM
GI50 (OVCAR-5 ovarian): 22.7 µM
TGI (OVCAR-5 ovarian): 53 µM
GI50 (HCT-116 colon): 14.9 µM
TGI (HCT-116 colon): 34.3 µM
GI50 (T-47D breast): 9.64 µM
TGI (T-47D breast): 77.7 µM
GI50 (M14 melanoma): 35.6 µM
TGI (M14 melanoma): > 100 µM
GI50 (KM12 colon): 40.6 µM
TGI (KM12 colon): > 100 µM
GI50 (HOP-62 NSCLC): 69.5 µM
TGI (HOP-62 NSCLC): > 100 µM
GI50 (K-562 leukemia): 89.4 µM
TGI (K-562 leukemia): > 100 µM
GI50 (SN12C renal): 79.8 µM
TGI (SN12C renal): > 100 µM
GI50 (MALME-3M melanoma): 31.7 µM
TGI (MALME-3M melanoma): > 100 µM
GI50 (TK-10 renal): 29.1 µM
TGI (TK-10 renal): > 100 µM
GI50 (NCI-H460 lung): 14.4 µM
TGI (NCI-H460 lung): 49.4 µM
GI50 (NCI-H522 lung): 23.7 µM
TGI (NCI-H522 lung): 58.5 µM
GI50 (MOLT-4 leukemia): 26.8 µM
TGI (MOLT-4 leukemia): > 100 µM
GI50 (SW-620 colon): 32 µM
TGI (SW-620 colon): > 100 µM
GI50 (LOX IMVI melanoma): 49.7 µM
TGI (LOX IMVI melanoma): > 100 µM
GI50 (SK-MEL-2 melanoma): 85 µM
TGI (SK-MEL-2 melanoma): > 100 µM
GI50 (HS 578T breast): 26.1 µM
TGI (HS 578T breast): 67 µM
GI50 (UACC-62 melanoma): 29.3 µM
TGI (UACC-62 melanoma): 98.6 µM
GI50 (DU-145 prostate): 17.2 µM
TGI (DU-145 prostate): 82.6 µM
GI50 (SR leukemia): > 100 µM
TGI (SR leukemia): > 100 µM
GI50 (CAKI-1 renal): 18.7 µM
TGI (CAKI-1 renal): 43 µM
GI50 (A549 NSCLC): 41.5 µM
TGI (A549 NSCLC): > 100 µM
GI50 (MDA-MB-435): 36.5 µM
TGI (MDA-MB-435): > 100 µM
GI50 (SK-MEL-28 melanoma): 30.8 µM
TGI (SK-MEL-28 melanoma): > 100 µM
GI50 (OVCAR-8 ovarian): 39.1 µM
TGI (OVCAR-8 ovarian): > 100 µM
GI50 (EKVX NSCLC): 29.3 µM
TGI (EKVX NSCLC): 95.9 µM
GI50 (NCI-H226 lung): 21.6 µM
TGI (NCI-H226 lung): 49.3 µM
GI50 (SK-OV-3 ovarian): 36.5 µM
TGI (SK-OV-3 ovarian): 99.3 µM
GI50 (SNB-19 CNS): 37.7 µM
TGI (SNB-19 CNS): > 100 µM
GI50 (HCC-2998 colon): 20.3 µM
TGI (HCC-2998 colon): 57.2 µM
GI50 (ACHN renal): 50 µM
TGI (ACHN renal): > 100 µM
GI50 (RPMI-8226 leukemia): 40.9 µM
TGI (RPMI-8226 leukemia): > 100 µM
GI50 (HOP-92 NSCLC): 13.9 µM
TGI (HOP-92 NSCLC): 36.3 µM
GI50 (SK-MEL-5 melanoma): 21.3 µM
TGI (SK-MEL-5 melanoma): 81.8 µM
GI50 (MDA-MB-231 breast): 16.7 µM
TGI (MDA-MB-231 breast): 48.5 µM
GI50 (SF-268 CNS): 40.6 µM
TGI (SF-268 CNS): > 100 µM
GI50 (HCT-15 colon): 17.4 µM
TGI (HCT-15 colon): 65.1 µM
